Laboratory results published in PubChem BioAssay (NCI).
Where “and” joins values, the source holds several entries; their conditions need not be identical. Identical values can stand only once.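 Where inhibition never reached the appropriate level, the endpoint shown equals the highest concentration tested. Otherwise, values were interpolated linearly from a five-concentration, 48-hour dose response in 96-well plates. Abbreviation: GI50, concentration required for 50% inhibition of growth. TGI: concentration producing complete growth inhibition.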

system: MDA-MB-468 breast; assay: growth of human tumour cells (NCI), 48 h

Row | Compound | GI50 | TGI
1 | COc1ccc(SC2c3cc(OC)c(OC)cc3Oc3nc(N)c(C#N)c(N)c32)cc1 (configuration not stated) | 320 nM | 1.53 µM
2 | CC1(C)CCC[C@]23C(=O)O[C@](O)(C(=O)C4=C[C@@](C)(/C=C/CCCc5ccc6ccc7cccc8ccc5c6c78)CC[C@@]42O)[C@@H]13 | 196 nM | 0.409 µM
3 | C#CCN1C(=O)/C(=c2\sc3n(c2=O)C2C(NN=3)N(CC)C(=O)N2CC)c2ccccc21 (configuration not stated) | 331 nM | 3.24 µM
4 | Cn1nc(C(F)(F)F)c(-c2ccc(Cl)c(C(F)(F)F)c2)c1-c1ccc(OCc2ccc(Cl)cc2)cc1O | 1340 nM | 3.65 µM
5 | CCCS(=O)(=O)Nc1ccc(F)c(C(=O)c2c[nH]c3ncc(-c4ccc(Cl)cc4)cc23)c1F | 3550 nM and 5650 nM | 20.1 µM and > 10 µM
6 | COc1ccc(C(=O)c2cc(OC)c(OC)c(OC)c2)cc1OC(C)=O | 754 nM | –
7 | O=C(/C=C/c1ccc(C(F)(F)F)cc1)c1ccc(Nc2nc(NCCO)nc(NCCO)n2)cc1 | 2020 nM | 5.07 µM
8 | C/C(=N\NC(N)=O)C(CN1CCCCC1)C(c1ccccc1)c1c(O)c2ccccc2oc1=O (configuration not stated) | > 100000 nM | > 100 µM
9 | CCSc1oc(-c2ccccc2)nc1[P+](c1ccccc1)(c1ccccc1)c1ccccc1 | 168 nM | 0.676 µM
10 | O=C1c2ccccc2C(=O)c2c1ccc(C(Br)Br)c2[N+](=O)[O-] | 541 nM | 2.28 µM
11 | O=C1NC(=O)/C(=C/C=C/c2ccccc2)S1 | 10900 nM | 56 µM
12 | CCN(CC)CCN1C(=O)c2c(c(C)c3c(oc4cc(O)ccc43)c2C)C1=O | 1460 nM | 3.01 µM
13 | O=C(NCc1cccnc1)/C(=C\c1ccc(Br)cc1)S(=O)(=O)c1ccccc1 | 266 nM | 0.933 µM
14 | Cl.[Pt].[c-]1ccccc1-c1ccccn1.c1ccc(P(c2ccccc2)C([PH+](c2ccccc2)c2ccccc2)[PH+](c2ccccc2)c2ccccc2)cc1 | 571 nM | 4.21 µM
15 | CCOC(=O)c1sc(-c2ccc(OS(=O)(=O)c3cccs3)c(C=O)c2)nc1C | 1310 nM | 4.95 µM
16 | COc1ccc(/C(C)=C(\c2ccc(Cl)cc2)c2ccc(OCCN3CCCC3)cc2)cc1 | 4030 nM | 8.85 µM
17 | CC(C)C[C@H](NC(=O)[C@H](CCc1ccccc1)NC(=O)CN1CCOCC1)C(=O)N[C@@H](Cc1ccccc1)C(=O)N[C@@H](CC(C)C)C(=O)[C@@]1(C)CO1 | < 13.5 nM | 0.0362 µM

Row | Compound | GI50 | TGI
18 | COc1ccc(-c2ccc3c(NC(=O)C4CC4)n[nH]c3n2)cc1 | > 25000 nM | > 25 µM
19 | COc1ccc(/C=C/c2c(C(=O)/C=C/c3ccc(Cl)cc3)c(C)nc3ccccc23)cc1 | 1790 nM | 3.54 µM
20 | CCN1CCN(c2nc(NNC(=O)Cc3ccccc3)nc(N3CCN(C(c4ccccc4)c4ccccc4)CC3)n2)CC1 | 1950 nM | 4.52 µM
21 | C[C@]12O[C@H](C[C@]1(O)CO)n1c3ccccc3c3c4c(c5c6ccccc6n2c5c31)CNC4=O | 457 nM and 185 nM | 2.57 µM and 1.65 µM
22 | N#Cc1c(NC(=O)c2ccccc2)sc2c1CCC(=O)C2 | 2190 nM | 6.94 µM
23 | CC(=O)OCC1OC(OC2C(COC(C)=O)OC(OCCC[S-])C(OC(C)=O)C2OC(C)=O)C(OC(C)=O)C(OC(C)=O)C1OC(C)=O.[Au+].c1ccc(CN2[CH-]N(Cc3ccccc3)C(c3ccccc3)=C2c2ccccc2)cc1 (configuration not stated) | 2810 nM | 12.4 µM
24 | Nc1ccc(-c2nc3ccc4[nH]ncc4c3c3c2CCCC3)cc1F | 126 nM | 0.625 µM
25 | COc1cc(C)c(C(=O)O[C@H]2[C@H](O[C@H]3[C@@H](O)COC(O[C@H]4C[C@H]5[C@@H]6CC=C7C[C@@H](O)CC[C@]7(C)[C@H]6CC[C@]5(C)[C@H]4[C@H](C)C(=O)CCC(C)C)[C@@H]3OC(C)=O)OC[C@@H](O)[C@@H]2O)c(C)c1 (some centres not stated) | 17.1 nM | 1.84 µM
26 | CC1(C)N=C(N)N=C(N)N1c1cccc(C#N)c1 | 2310 nM | > 100 µM
27 | CN(C)CCCNc1nn2c(=O)c3ccccc3nc2c2ccccc12 | 6230 nM | 20 µM
28 | CN1/C(=C\C(I)C(I)C2=[N+](C)c3ccccc3C2(C)C)C(C)(C)c2ccccc21 (configuration not stated) | 72.3 nM | 1.24 µM
29 | S=c1nc(-c2ccccc2)oc(=NC2CCCCC2)n1C1CCCCC1 | 1970 nM | 4.83 µM
30 | CCCCCCCCCCCCn1c(C)nc2ccccc21 | 601 nM | 19.4 µM
31 | COc1ccc(-c2nn(-c3cccc(Cl)c3)cc2C=C(C#N)C#N)cc1 | 1670 nM | 4.96 µM
32 | COc1ccc(-c2ccc(/C=C/C(=O)NO)cc2)cc1 | 463 nM | 2.62 µM
33 | CC(=O)Oc1ccc(OC(C)=O)c2ccccc12 | 477 nM | 2.19 µM
34 | Nc1ncnc2c1c(C(F)(F)F)cn2[C@@H]1O[C@H](CO)[C@@H](O)[C@H]1O | 242 nM | 2.14 µM
